In US11203563B2, “Preparation of zinc linolenate, and application of zinc linolenate in preparing anti-helicobacter pylori drug” (NANJING MEDICAL UNIVERSITY, priority 2018, dated 2021):

How the values were obtained:
Format in all cases: cell-based
[1] = system: 25 kinds of non-Helicobacter pylori bacteria, including Staphylococcus aureus; assay: MIC by microdilution method, 25 kinds of non-Helicobacter pylori bacteria together; conditions: all 25 kinds of non-Helicobacter pylori bacteria, 72 h
Description: (§1) 2.2 Detection of minimum inhibitory concentration (MIC, 100 µL system) of zinc linolenate for non-Helicobacter pylori bacteria by microdilution method
(§2) (1) Zinc linolenate (2 mg/mL) is prepared.
(§3) (3) Bacterial solution preparation: the non-Helicobacter pylori grown in a log phase on a solid plate is taken to make a bacterial suspension with a BHI culture medium, the absorbance (OD600) is adjusted to 0.3 (1×10^8 CFU/mL), and the bacterial suspension is diluted 100 times to 1×10^6 CFU/mL for use.
(§4) (4) Inoculation of bacterial solution: 10 μL of bacterial solution above is taken and added to the 1-8th wells (the concentration of the bacterial solution per well is about 1.0×10^5 CFU/mL). Culture is performed for 72 h to judge the result. The drug concentrations of the first-seventh wells are 128, 64, 32, 16, 8, 4, and 2 μg/mL, respectively.
(§5) The experiment only makes sense when the bacteria obviously grow in the 8th well, i.e. the positive control well (without antibiotics). When a single drift occurs in the microdilution method, the maximum drug concentration that inhibits bacterial growth should be recorded. If there are multiple drifts, the results should not be reported and the experiment should be repeated. The experiment is repeated 3 times for each drug.

[2] = system: Enterococcus faecalis (ATCC19434); assay: MIC by microdilution method, non-Helicobacter pylori bacteria; design: key: +: Bacterial growth; −: No bacterial growth; conditions: 72 h
Description: as §1, §2, §3, §4, §5

[3] = system: Neisseria gonorrhoeae (ATCC19424); assay: as above; design: key: +: Bacterial growth; −: No bacterial growth; conditions: 72 h
Description: as §1, §2, §3, §4, §5

[4] = system: Haemophilus influenzae (ATCC49766); assay: as above; design: key: +: Bacterial growth; −: No bacterial growth; conditions: 72 h
Description: as §1, §2, §3, §4, §5

[5] = system: Stenotrophomonas maltophilia; assay: as above; design: key: +: Bacterial growth; −: No bacterial growth; conditions: 72 h
Description: as §1, §2, §3, §4, §5

Morganella morganii = assay: as above; design: key: +: Bacterial growth; −: No bacterial growth; conditions: 72 h
Description: as §1, §2, §3, §4, §5

Lactobacillus = assay: as above; design: key: +: Bacterial growth; −: No bacterial growth; conditions: 72 h
Description: as §1, §2, §3, §4, §5

Bacillus subtilis (168) = assay: as above; design: key: +: Bacterial growth; −: No bacterial growth; conditions: 72 h
Description: as §1, §2, §3, §4, §5

Bacillus cereus = assay: as above; design: key: +: Bacterial growth; −: No bacterial growth; conditions: 72 h
Description: as §1, §2, §3, §4, §5

[6] = system: Klebsiella pneumoniae (YF173002); assay: as above; design: key: +: Bacterial growth; −: No bacterial growth; conditions: 72 h
Description: as §1, §2, §3, §4, §5

[7] = system: Mycobacterium smegmatis (MC^2 155); assay: as above; design: key: +: Bacterial growth; −: No bacterial growth; conditions: 72 h
Description: as §1, §2, §3, §4, §5

Shigella dysenteriae = assay: as above; design: key: +: Bacterial growth; −: No bacterial growth; conditions: 72 h
Description: as §1, §2, §3, §4, §5

[8] = system: Enterobacter cloacae (ATCC13047); assay: as above; design: key: +: Bacterial growth; −: No bacterial growth; conditions: 72 h
Description: as §1, §2, §3, §4, §5

[9] = system: Acinetobacter baumannii (ATCC19606); assay: as above; design: key: +: Bacterial growth; −: No bacterial growth; conditions: 72 h
Description: as §1, §2, §3, §4, §5

[10] = system: Salmonella typhi (14028s); assay: as above; design: key: +: Bacterial growth; −: No bacterial growth; conditions: 72 h
Description: as §1, §2, §3, §4, §5

CC/C=C\C/C=C\C/C=C\CCCCCCCC(=O)[O-].CC/C=C\C/C=C\C/C=C\CCCCCCCC(=O)[O-].[Zn+2] [zinc linolenate]
MIC [1]: greater than or equal to 128 μg/mL
Bacterial growth ([2]; zinc linolenate 2 μg/ml): +
Bacterial growth ([2]; zinc linolenate 4 μg/ml): +
Bacterial growth ([2]; zinc linolenate 8 μg/ml): +
Bacterial growth ([2]; zinc linolenate 16 μg/ml): +
Bacterial growth ([2]; zinc linolenate 32 μg/ml): +
Bacterial growth ([2]; zinc linolenate 64 μg/ml): +
Bacterial growth ([2]; zinc linolenate 128 μg/ml): −
Bacterial growth ([3]; zinc linolenate 2 μg/ml): +
Bacterial growth ([3]; zinc linolenate 4 μg/ml): +
Bacterial growth ([3]; zinc linolenate 8 μg/ml): +
Bacterial growth ([3]; zinc linolenate 16 μg/ml): +
Bacterial growth ([3]; zinc linolenate 32 μg/ml): +
Bacterial growth ([3]; zinc linolenate 64 μg/ml): +
Bacterial growth ([3]; zinc linolenate 128 μg/ml): +
Bacterial growth ([4]; zinc linolenate 2 μg/ml): +
Bacterial growth ([4]; zinc linolenate 4 μg/ml): +
Bacterial growth ([4]; zinc linolenate 8 μg/ml): +
Bacterial growth ([4]; zinc linolenate 16 μg/ml): +
Bacterial growth ([4]; zinc linolenate 32 μg/ml): +
Bacterial growth ([4]; zinc linolenate 64 μg/ml): +
Bacterial growth ([4]; zinc linolenate 128 μg/ml): +
Bacterial growth ([5]; zinc linolenate 2 μg/ml): +
Bacterial growth ([5]; zinc linolenate 4 μg/ml): +
Bacterial growth ([5]; zinc linolenate 8 μg/ml): +
Bacterial growth ([5]; zinc linolenate 16 μg/ml): +
Bacterial growth ([5]; zinc linolenate 32 μg/ml): +
Bacterial growth ([5]; zinc linolenate 64 μg/ml): +
Bacterial growth ([5]; zinc linolenate 128 μg/ml): −
Bacterial growth (Morganella morganii; zinc linolenate 2 μg/ml): +
Bacterial growth (Morganella morganii; zinc linolenate 4 μg/ml): +
Bacterial growth (Morganella morganii; zinc linolenate 8 μg/ml): +
Bacterial growth (Morganella morganii; zinc linolenate 16 μg/ml): +
Bacterial growth (Morganella morganii; zinc linolenate 32 μg/ml): +
Bacterial growth (Morganella morganii; zinc linolenate 64 μg/ml): +
Bacterial growth (Morganella morganii; zinc linolenate 128 μg/ml): −
Bacterial growth (Lactobacillus; zinc linolenate 2 μg/ml): +
Bacterial growth (Lactobacillus; zinc linolenate 4 μg/ml): +
Bacterial growth (Lactobacillus; zinc linolenate 8 μg/ml): +
Bacterial growth (Lactobacillus; zinc linolenate 16 μg/ml): +
Bacterial growth (Lactobacillus; zinc linolenate 32 μg/ml): +
Bacterial growth (Lactobacillus; zinc linolenate 64 μg/ml): +
Bacterial growth (Lactobacillus; zinc linolenate 128 μg/ml): −
Bacterial growth (Bacillus subtilis (168); zinc linolenate 2 μg/ml): +
Bacterial growth (Bacillus subtilis (168); zinc linolenate 4 μg/ml): +
Bacterial growth (Bacillus subtilis (168); zinc linolenate 8 μg/ml): +
Bacterial growth (Bacillus subtilis (168); zinc linolenate 16 μg/ml): +
Bacterial growth (Bacillus subtilis (168); zinc linolenate 32 μg/ml): +
Bacterial growth (Bacillus subtilis (168); zinc linolenate 64 μg/ml): +
Bacterial growth (Bacillus subtilis (168); zinc linolenate 128 μg/ml): +
Bacterial growth (Bacillus cereus; zinc linolenate 2 μg/ml): +
Bacterial growth (Bacillus cereus; zinc linolenate 4 μg/ml): +
Bacterial growth (Bacillus cereus; zinc linolenate 8 μg/ml): +
Bacterial growth (Bacillus cereus; zinc linolenate 16 μg/ml): +
Bacterial growth (Bacillus cereus; zinc linolenate 32 μg/ml): +
Bacterial growth (Bacillus cereus; zinc linolenate 64 μg/ml): +
Bacterial growth (Bacillus cereus; zinc linolenate 128 μg/ml): +
Bacterial growth ([6]; zinc linolenate 2 μg/ml): +
Bacterial growth ([6]; zinc linolenate 4 μg/ml): +
Bacterial growth ([6]; zinc linolenate 8 μg/ml): +
Bacterial growth ([6]; zinc linolenate 16 μg/ml): +
Bacterial growth ([6]; zinc linolenate 32 μg/ml): +
Bacterial growth ([6]; zinc linolenate 64 μg/ml): +
Bacterial growth ([6]; zinc linolenate 128 μg/ml): −
Bacterial growth ([7]; zinc linolenate 2 μg/ml): +
Bacterial growth ([7]; zinc linolenate 4 μg/ml): +
Bacterial growth ([7]; zinc linolenate 8 μg/ml): +
Bacterial growth ([7]; zinc linolenate 16 μg/ml): +
Bacterial growth ([7]; zinc linolenate 32 μg/ml): +
Bacterial growth ([7]; zinc linolenate 64 μg/ml): +
Bacterial growth ([7]; zinc linolenate 128 μg/ml): +
Bacterial growth (Shigella dysenteriae; zinc linolenate 2 μg/ml): +
Bacterial growth (Shigella dysenteriae; zinc linolenate 4 μg/ml): +
Bacterial growth (Shigella dysenteriae; zinc linolenate 8 μg/ml): +
Bacterial growth (Shigella dysenteriae; zinc linolenate 16 μg/ml): +
Bacterial growth (Shigella dysenteriae; zinc linolenate 32 μg/ml): +
Bacterial growth (Shigella dysenteriae; zinc linolenate 64 μg/ml): +
Bacterial growth (Shigella dysenteriae; zinc linolenate 128 μg/ml): −
Bacterial growth ([8]; zinc linolenate 2 μg/ml): +
Bacterial growth ([8]; zinc linolenate 4 μg/ml): +
Bacterial growth ([8]; zinc linolenate 8 μg/ml): +
Bacterial growth ([8]; zinc linolenate 16 μg/ml): +
Bacterial growth ([8]; zinc linolenate 32 μg/ml): +
Bacterial growth ([8]; zinc linolenate 64 μg/ml): +
Bacterial growth ([8]; zinc linolenate 128 μg/ml): +
Bacterial growth ([9]; zinc linolenate 2 μg/ml): +
Bacterial growth ([9]; zinc linolenate 4 μg/ml): +
Bacterial growth ([9]; zinc linolenate 8 μg/ml): +
Bacterial growth ([9]; zinc linolenate 16 μg/ml): +
Bacterial growth ([9]; zinc linolenate 32 μg/ml): +
Bacterial growth ([9]; zinc linolenate 64 μg/ml): +
Bacterial growth ([9]; zinc linolenate 128 μg/ml): +
Bacterial growth ([10]; zinc linolenate 2 μg/ml): +
Bacterial growth ([10]; zinc linolenate 4 μg/ml): +
Bacterial growth ([10]; zinc linolenate 8 μg/ml): +
Bacterial growth ([10]; zinc linolenate 16 μg/ml): +
Bacterial growth ([10]; zinc linolenate 32 μg/ml): +
Bacterial growth ([10]; zinc linolenate 64 μg/ml): +
Bacterial growth ([10]; zinc linolenate 128 μg/ml): +
